From the CheMixHub viscosity set

Test: xn = mol fraction of the nth substance listed
Conditions: 100 kPa

C=CC(=O)OCC + CC#N
viscosity [mPa·s]
Conditions | 293.15 K | 298.15 K | 303.15 K | 308.15 K | 313.15 K | 318.15 K
x2 = 0.0611 | 0.5524 | 0.5177 | 0.4854 | 0.4506 | 0.4107 | 0.3704
x2 = 0.1197 | 0.5374 | 0.5035 | 0.472 | 0.4383 | 0.3998 | 0.3611
x2 = 0.1852 | 0.5211 | 0.4883 | 0.4578 | 0.4254 | 0.3886 | 0.3517
x2 = 0.2385 | 0.5081 | 0.4762 | 0.4467 | 0.4154 | 0.3801 | 0.3447
x2 = 0.2966 | 0.4944 | 0.4633 | 0.4348 | 0.4048 | 0.3711 | 0.3374
x2 = 0.3675 | 0.4781 | 0.4483 | 0.421 | 0.3926 | 0.3609 | 0.3293
x2 = 0.436 | 0.4629 | 0.4343 | 0.4082 | 0.3812 | 0.3515 | 0.3219
x2 = 0.4982 | 0.4496 | 0.4221 | 0.3971 | 0.3714 | 0.3435 | 0.3157
x2 = 0.5745 | 0.4339 | 0.4078 | 0.3841 | 0.3601 | 0.3343 | 0.3087
x2 = 0.6519 | 0.4188 | 0.394 | 0.3717 | 0.3493 | 0.3257 | 0.3024
x2 = 0.725 | 0.4054 | 0.3819 | 0.3608 | 0.34 | 0.3185 | 0.2973
x2 = 0.8185 | 0.3896 | 0.3678 | 0.3484 | 0.3296 | 0.3108 | 0.2924
x2 = 0.9145 | 0.3751 | 0.3552 | 0.3378 | 0.3213 | 0.3054 | 0.2901
